Measurements as given in PubChem BioAssay AID651630 (Sanford-Burnham Center for Chemical Genomics, 2012).
Activity calls are given as the source filed them.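 The calls were made as follows: active = lipid-stain IC50 at or below a set limit, with nuclear-stain toxicity IC50 at least five times higher; inactive = the rest.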

Tests used:
DAPI = assay: triacylglycerol accumulation inhibitor potency, dose response, cell-based, panel, Nile Red and DAPI fluorescence, H9c2 (AID 651630); settings: H9c2 cells, DAPI nuclear fluorescence (cytotoxicity counter-readout), oleic acid;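 also: cells exposed to compound overnight before fixation and staining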
TAG = assay: as above; settings: H9c2 cells, Nile Red TAG fluorescence, oleic acid

Q: With CCCCCCC(C)(C)c1ccc([C@@H]2C[C@H](O)CC[C@H]2CCCO)c(O)c1 as the molecule, how does the IC50 cytotoxicity (DAPI nuclear signal decrease) (DAPI; mean of runs) read?
A: Its IC50 cytotoxicity (DAPI nuclear signal decrease) is 22 µM (inactive).

Q: And the IC50 cytotoxicity (DAPI nuclear signal decrease) (DAPI; run 1)?
A: The IC50 cytotoxicity (DAPI nuclear signal decrease) was 23.7 µM.

Q: What about the IC50 cytotoxicity (DAPI nuclear signal decrease) (DAPI; run 2) of the same molecule?
A: The IC50 cytotoxicity (DAPI nuclear signal decrease) was 20.2 µM.

Q: And the IC50 (TAG; mean of runs)?
A: Its IC50 is 9.3 µM.

Q: What about the IC50 (TAG; run 1) of the same molecule?
A: The IC50 was 7.71 µM.

Q: And the IC50 (TAG; run 2)?
A: The IC50 was 10.9 µM.

Q: What does the source list for Cc1ccc(NC(=O)c2nc[nH]c2C(=O)NCCCCCCNC(=O)c2[nH]cnc2C(=O)Nc2ccc(C)cc2)cc1?
A: IC50 cytotoxicity (DAPI nuclear signal decrease) (DAPI; mean of runs): > 25 µM (inactive); IC50 cytotoxicity (DAPI nuclear signal decrease) (DAPI; run 1): > 25 µM; IC50 cytotoxicity (DAPI nuclear signal decrease) (DAPI; run 2): > 25 µM; IC50 (TAG; mean of runs): 9.03 µM; IC50 (TAG; run 1): 8.97 µM; IC50 (TAG; run 2): 9.09 µM

Q: What does the source list for Cc1cccc(NC(=O)C(C)Sc2nc3ccccc3c(=O)n2CCCN2CCOCC2)c1 (stereo not given)?
A: IC50 cytotoxicity (DAPI nuclear signal decrease) (DAPI; mean of runs): > 25 µM (inactive); IC50 cytotoxicity (DAPI nuclear signal decrease) (DAPI; run 1): > 25 µM; IC50 cytotoxicity (DAPI nuclear signal decrease) (DAPI; run 2): > 25 µM; IC50 (TAG; mean of runs): 20.5 µM (inactive); IC50 (TAG; run 1): 20.6 µM; IC50 (TAG; run 2): 20.5 µM

Q: With O=C(Cc1coc2ccc3ccccc3c12)Nc1nccs1 as the molecule, how does the IC50 cytotoxicity (DAPI nuclear signal decrease) (DAPI; mean of runs) read?
A: The IC50 cytotoxicity (DAPI nuclear signal decrease) was > 25 µM (inactive).

Q: And the IC50 cytotoxicity (DAPI nuclear signal decrease) (DAPI; run 1)?
A: The IC50 cytotoxicity (DAPI nuclear signal decrease) was over 25 µM.

Q: What about the IC50 cytotoxicity (DAPI nuclear signal decrease) (DAPI; run 2) of the same molecule?
A: The IC50 cytotoxicity (DAPI nuclear signal decrease) was over 25 µM.

Q: What about the IC50 (TAG; mean of runs) of the same molecule?
A: The IC50 was > 25 µM (inactive).

Q: And the IC50 (TAG; run 1)?
A: Its IC50 is over 25 µM.

Q: And the IC50 (TAG; run 2)?
A: The IC50 was over 25 µM.

Q: How did the IC50 cytotoxicity (DAPI nuclear signal decrease) (DAPI; mean of runs) turn out when Nc1cc2c(cc1Br)[nH]c(=O)c1ccccc12 was run?
A: Its IC50 cytotoxicity (DAPI nuclear signal decrease) is > 25 µM (inactive).

Q: What about the IC50 cytotoxicity (DAPI nuclear signal decrease) (DAPI; run 1) of the same molecule?
A: Its IC50 cytotoxicity (DAPI nuclear signal decrease) is over 25 µM.

Q: And the IC50 cytotoxicity (DAPI nuclear signal decrease) (DAPI; run 2)?
A: The IC50 cytotoxicity (DAPI nuclear signal decrease) was over 25 µM.

Q: And the IC50 (TAG; mean of runs)?
A: Its IC50 is 8.3 µM.

Q: And the IC50 (TAG; run 1)?
A: Its IC50 is 8.66 µM.

Q: And the IC50 (TAG; run 2)?
A: Its IC50 is 7.94 µM.

Q: Which results are given for COc1cc2c(c(OC)c1OC)-c1ccc(SC)c(=O)cc1C(NC=O)CC2 (stereo not given)?
A: IC50 cytotoxicity (DAPI nuclear signal decrease) (DAPI; mean of runs): > 25 µM (inactive); IC50 cytotoxicity (DAPI nuclear signal decrease) (DAPI; run 1): > 25 µM; IC50 cytotoxicity (DAPI nuclear signal decrease) (DAPI; run 2): > 25 µM; IC50 (TAG; mean of runs): > 25 µM (inactive); IC50 (TAG; run 1): > 25 µM; IC50 (TAG; run 2): > 25 µM

Q: What does the source list for CC(C)N1CSC(=S)N(Cc2ccccc2)C1?
A: IC50 cytotoxicity (DAPI nuclear signal decrease) (DAPI; mean of runs): > 25 µM (inactive); IC50 cytotoxicity (DAPI nuclear signal decrease) (DAPI; run 1): > 25 µM; IC50 cytotoxicity (DAPI nuclear signal decrease) (DAPI; run 2): > 25 µM; IC50 (TAG; mean of runs): > 25 µM (inactive); IC50 (TAG; run 1): > 25 µM; IC50 (TAG; run 2): > 25 µM

Q: How did the IC50 cytotoxicity (DAPI nuclear signal decrease) (DAPI; mean of runs) turn out when Cc1nn(-c2cccc(Cl)c2)c2nc(-c3ccncc3)cc(C(=O)N3CCOCC3)c12 was run?
A: Its IC50 cytotoxicity (DAPI nuclear signal decrease) is > 25 µM (inactive).

Q: What about the IC50 cytotoxicity (DAPI nuclear signal decrease) (DAPI; run 1) of the same molecule?
A: The IC50 cytotoxicity (DAPI nuclear signal decrease) was over 25 µM.

Q: And the IC50 cytotoxicity (DAPI nuclear signal decrease) (DAPI; run 2)?
A: Its IC50 cytotoxicity (DAPI nuclear signal decrease) is over 25 µM.

Q: What about the IC50 (TAG; mean of runs) of the same molecule?
A: The IC50 was > 25 µM (inactive).

Q: And the IC50 (TAG; run 1)?
A: The IC50 was over 25 µM.

Q: What about the IC50 (TAG; run 2) of the same molecule?
A: The IC50 was over 25 µM.

Q: How did the IC50 cytotoxicity (DAPI nuclear signal decrease) (DAPI; mean of runs) turn out when COc1cc(-c2cc3nc(NCCOc4ccccc4)ccn3n2)cc(OC)c1OC was run?
A: Its IC50 cytotoxicity (DAPI nuclear signal decrease) is > 25 µM (inactive).

Q: What about the IC50 cytotoxicity (DAPI nuclear signal decrease) (DAPI; run 1) of the same molecule?
A: Its IC50 cytotoxicity (DAPI nuclear signal decrease) is over 25 µM.

Q: And the IC50 cytotoxicity (DAPI nuclear signal decrease) (DAPI; run 2)?
A: Its IC50 cytotoxicity (DAPI nuclear signal decrease) is over 25 µM.

Q: What about the IC50 (TAG; mean of runs) of the same molecule?
A: The IC50 was 18.9 µM (inactive).

Q: And the IC50 (TAG; run 1)?
A: Its IC50 is 16.7 µM.

Q: And the IC50 (TAG; run 2)?
A: The IC50 was 21.2 µM.

Q: Which IC50 cytotoxicity (DAPI nuclear signal decrease) (DAPI; mean of runs) does the source give for COc1ccc(NC(=O)C2(C)Cc3c(-c4cccc(C(N)=O)c4)ccnc3O2)cn1 (stereo not given) here?
A: Its IC50 cytotoxicity (DAPI nuclear signal decrease) is > 25 µM (inactive).

Q: What about the IC50 cytotoxicity (DAPI nuclear signal decrease) (DAPI; run 1) of the same molecule?
A: The IC50 cytotoxicity (DAPI nuclear signal decrease) was over 25 µM.

Q: And the IC50 cytotoxicity (DAPI nuclear signal decrease) (DAPI; run 2)?
A: The IC50 cytotoxicity (DAPI nuclear signal decrease) was over 25 µM.

Q: What about the IC50 (TAG; mean of runs) of the same molecule?
A: The IC50 was 18.5 µM (inactive).

Q: And the IC50 (TAG; run 1)?
A: Its IC50 is 18 µM.

Q: And the IC50 (TAG; run 2)?
A: Its IC50 is 18.9 µM.

Q: Which results are given for COc1ccc(-c2nc3ccc(Cl)cn3c2NC2CCCCC2)cc1SC1CCCCC1?
A: IC50 cytotoxicity (DAPI nuclear signal decrease) (DAPI; run 1): > 25 µM; IC50 cytotoxicity (DAPI nuclear signal decrease) (DAPI; run 2): > 25 µM; IC50 (TAG; mean of runs): 3.44 µM; IC50 (TAG; run 1): 2.41 µM; IC50 (TAG; run 2): 4.47 µM

Q: Nc1ccc2ccccc2c1N=Nc1ccccc1 was tested. Which IC50 cytotoxicity (DAPI nuclear signal decrease) (DAPI; mean of runs) did it give?
A: The IC50 cytotoxicity (DAPI nuclear signal decrease) was > 25 µM (inactive).

Q: What about the IC50 cytotoxicity (DAPI nuclear signal decrease) (DAPI; run 1) of the same molecule?
A: Its IC50 cytotoxicity (DAPI nuclear signal decrease) is over 25 µM.

Q: What about the IC50 cytotoxicity (DAPI nuclear signal decrease) (DAPI; run 2) of the same molecule?
A: Its IC50 cytotoxicity (DAPI nuclear signal decrease) is over 25 µM.

Q: What about the IC50 (TAG; mean of runs) of the same molecule?
A: Its IC50 is 9.51 µM.

Q: What about the IC50 (TAG; run 1) of the same molecule?
A: The IC50 was 8.88 µM.

Q: And the IC50 (TAG; run 2)?
A: Its IC50 is 10.1 µM.

Q: Cn1cc(CN2CCC(C(=O)NC(c3ccc(F)cc3)c3ccc4ccccc4n3)CC2)c2ccccc21 (stereo not given) was tested. Which IC50 cytotoxicity (DAPI nuclear signal decrease) (DAPI; mean of runs) did it give?
A: Its IC50 cytotoxicity (DAPI nuclear signal decrease) is 13.7 µM (inactive).

Q: And the IC50 cytotoxicity (DAPI nuclear signal decrease) (DAPI; run 1)?
A: Its IC50 cytotoxicity (DAPI nuclear signal decrease) is 14.5 µM.

Q: And the IC50 cytotoxicity (DAPI nuclear signal decrease) (DAPI; run 2)?
A: Its IC50 cytotoxicity (DAPI nuclear signal decrease) is 13 µM.

Q: And the IC50 (TAG; mean of runs)?
A: Its IC50 is 10.3 µM.

Q: And the IC50 (TAG; run 1)?
A: Its IC50 is 9.38 µM.

Q: What about the IC50 (TAG; run 2) of the same molecule?
A: Its IC50 is 11.2 µM.

Q: Which IC50 cytotoxicity (DAPI nuclear signal decrease) (DAPI; mean of runs) does the source give for CC(=O)Nc1cccc(-c2ccnc3c2CC(C)(C(=O)NCc2ccc(N(C)C)cc2)O3)c1 (stereo not given) here?
A: The IC50 cytotoxicity (DAPI nuclear signal decrease) was > 25 µM (inactive).

Q: And the IC50 cytotoxicity (DAPI nuclear signal decrease) (DAPI; run 1)?
A: The IC50 cytotoxicity (DAPI nuclear signal decrease) was over 25 µM.

Q: And the IC50 cytotoxicity (DAPI nuclear signal decrease) (DAPI; run 2)?
A: The IC50 cytotoxicity (DAPI nuclear signal decrease) was over 25 µM.

Q: What about the IC50 (TAG; mean of runs) of the same molecule?
A: Its IC50 is 15.1 µM (inactive).

Q: And the IC50 (TAG; run 1)?
A: Its IC50 is 14.7 µM.

Q: What about the IC50 (TAG; run 2) of the same molecule?
A: The IC50 was 15.5 µM.

Q: Which results are given for COc1ccc([C@H]2CC(=O)C=C(c3ccc(OC)cc3OC)C2)cc1?
A: IC50 cytotoxicity (DAPI nuclear signal decrease) (DAPI; mean of runs): > 25 µM (inactive); IC50 cytotoxicity (DAPI nuclear signal decrease) (DAPI; run 1): > 25 µM; IC50 cytotoxicity (DAPI nuclear signal decrease) (DAPI; run 2): > 25 µM; IC50 (TAG; mean of runs): > 25 µM (inactive); IC50 (TAG; run 1): > 25 µM; IC50 (TAG; run 2): > 25 µM

Q: Which results are given for COc1ccc(-c2csc(NC(=S)NC(=O)/C=C/c3ccco3)n2)cc1Br?
A: IC50 cytotoxicity (DAPI nuclear signal decrease) (DAPI; mean of runs): > 25 µM (inactive); IC50 cytotoxicity (DAPI nuclear signal decrease) (DAPI; run 1): > 25 µM; IC50 cytotoxicity (DAPI nuclear signal decrease) (DAPI; run 2): > 25 µM; IC50 (TAG; mean of runs): 8 µM; IC50 (TAG; run 1): 5.89 µM; IC50 (TAG; run 2): 10.1 µM
